This note sets out measurements from patent US8017637B2, “Inhibitors of cdc phosphatases” (Ipsen Pharma S.A.S., priority 2004, dated 2011).

For data set [1], the target named is T1, purified recombinant enzyme Cdc25-C (MBP-Cdc25C) (Homo sapiens, UniProt P30307).
T1 construct: made in house
T1 sequence (P30307 1-473): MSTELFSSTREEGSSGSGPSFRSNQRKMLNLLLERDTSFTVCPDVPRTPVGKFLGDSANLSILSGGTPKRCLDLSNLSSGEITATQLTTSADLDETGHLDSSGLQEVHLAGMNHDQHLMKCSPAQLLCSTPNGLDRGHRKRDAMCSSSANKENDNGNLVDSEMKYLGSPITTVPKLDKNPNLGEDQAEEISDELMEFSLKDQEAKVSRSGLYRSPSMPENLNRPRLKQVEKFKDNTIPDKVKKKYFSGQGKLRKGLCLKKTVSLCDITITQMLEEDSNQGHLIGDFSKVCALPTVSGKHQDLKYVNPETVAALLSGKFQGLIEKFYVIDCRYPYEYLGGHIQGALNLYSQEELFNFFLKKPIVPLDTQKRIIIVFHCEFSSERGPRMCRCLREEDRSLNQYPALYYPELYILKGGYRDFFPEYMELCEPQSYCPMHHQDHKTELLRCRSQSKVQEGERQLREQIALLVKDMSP
Briefly: Measurement of the phosphatase activity of the purified recombinant enzyme Cdc25C (OMFP dephosphorylation, fluorescence). The conditions noted are these: OMFP 500 μM, 4 hours at 30° C. Format: biochemical. On the procedure: i) Measurement of the Phosphatase Activity of the Purified Recombinant Enzyme Cdc25C
The phosphatase activity of the protein MBP-Cdc25C is evaluated by the dephosphorylation of 3-O-methylfluorescein-phosphate (OMFP) to 3-O-methylfluorescein (OMF) with a determination of the fluorescence at 475 nm of the reaction product. This test makes it possible to identify inhibitors of the recombinant enzyme cdc25. The preparation of the fusion protein MBP-Cdc25C is described in the Patent Application PCT WO 01/44467.
The reaction is carried out in 384-well plate format at a final volume of 50 μl. The protein MBP-Cdc25C (prepared as described above) is preserved in the following elution buffer: 20 mM Tris-HCl pH 7.4; 250 mM NaCl; 1 mM EDTA; 1 mM of dithiothreitol (DTT); 10 mM maltose. It is diluted to a concentration of 60 μM in the following reaction buffer: 50 mM Tris-HCl pH 8.2; 50 mM NaCl; 1 mM DTT; 20% glycerol. Measurement of the background noise is carried out with the buffer without the addition of the enzyme. The products are tested at decreasing concentrations starting from 40 μM. The reaction is initiated by the addition of an OMFP solution at 500 μM final (prepared extemporaneously from a 12.5 mM stock solution in 100% DMSO (Sigma #M2629)). After 4 hours at 30° C. in a single-use 384-well plate, the fluorescence measured at OD 475 nm is read using a Victor^2 plate reader (EGG-Wallac). The determination of the concentration inhibiting the enzyme reaction by 50% is calculated from three independent experiments. Only the values contained in the linear part of the sigmoid are retained for linear regression analysis.

In data set [2] the test system is Mia-Paca2 lines (human pancreatic cancer cells). In words: Anti-proliferative activity, WST1 colorimetric test, Mia-Paca2 cells. The note with it: MIA PaCa-2, 96 hours treatment, up to 10 μM, read-out: IC50 on the cell proliferation of the Mia-Paca2 lines. Format: cell-based. The method, then: (§1) ii) Characterization of Anti-Proliferative Activity:
(§2) By way of example, the effect of a treatment by the compounds of the examples described previously on two lines of human Mia-Paca2 and DU145 cells will be studied. The cell lines DU145 (human prostate cancer cells) and Mia-PaCa2 (human pancreatic cancer cells) were acquired from the American Tissue Culture Collection (Rockville, Md., USA). The cells placed in 80 μl of Dulbecco's Modified Eagle medium (Gibco-Brl, Cergy-Pontoise, France) completed with 10% foetal calf serum inactivated by heating (Gibco-Brl, Cergy-Pontoise, France), 50,000 units/l of penicillin and 50 mg/l streptomycin (Gibco-Brl, Cergy-Pontoise, France), and 2 mM of glutamine (Gibco-Brl, Cergy-Pontoise, France) were seeded on a 96-well plate on day 0. The cells were treated on day 1 for 96 hours at increasing concentrations of each of the compounds to be tested up to 10 μM. At the end of the of this period, quantification of the cell proliferation is evaluated by a colorimetric test based on the cleavage of the tetrazolium salt WST1 by the mitochondrial dehydrogenases in the viable cells leading to the formation of formazan (Boehringer Mannheim, Meylan, France). These tests are carried out in duplicate with 8 determinations per concentration tested. For each compound to be tested, the values included in the linear part of the sigmoid were retained for linear regression analysis and used in order to estimate the inhibitory concentration IC50. The products are solubilized in dimethylsulphoxide (DMSO) at to 10^−2M and finally used in culture with 0.1% DMSO.
(Formazan colour is commonly taken as a measure of viable cells.)

In data set [3] the test system is DU-145 lines (human prostate cancer cells). Briefly: Anti-proliferative activity, WST1 colorimetric test, DU145 cells. Format: cell-based. The conditions noted are these: 96 hours treatment, up to 10 μM, read-out: IC50 on the cell proliferation of the DU-145 lines. The method, then: as §1, §2

With `COc1ccc(C(=O)N2CCN(C(=O)c3nc4c(s3)C(=O)C=C(NCCCN(C)CCCNC3=CC(=O)c5sc(C(=O)N6CCN(C(=O)c7ccc(OC)cc7)CC6)nc5C3=O)C4=O)CC2)cc1` [Example 36, 5.5′-[(methylimino)bis(propane-3,1-diylimino)]bis(2-([4-(4-methoxybenzoyl)piperazin-1-yl]carbonyl)-1,3-benzothiazole-4,7-dione)], the melting point (usually the temperature, or range, at which the solid turns liquid) fell in the range of 202 to 203 °C. For the same molecule, the IC50 in data set [1] was at most 1 µM. In addition, the IC50 in data set [2] was at most 10 µM. Moreover, the IC50 in data set [3] is at most 10 µM.

Molecule `CN(CCCNC1=CC(=O)c2sc(C(=O)N3CCN(C(=O)c4ccco4)CC3)nc2C1=O)CCCNC1=CC(=O)c2sc(C(=O)N3CCN(C(=O)c4ccco4)CC3)nc2C1=O` [Example 37, 5.5′-[(methylimino)bis(propane-3,1-diylimino)]bis(2-{[4-(2-furoyl)piperazin-1-yl]carbonyl}-1,3-benzothiazole-4,7-dione)] displayed a melting point of 173 to 174 °C. For the same molecule, the IC50 in data set [1] is at most 1 µM. Besides, the IC50 in data set [2] was at most 10 µM. In addition, the IC50 in data set [3] is at most 10 µM.

Consider `COc1ccc(NC(=O)c2nc3c(s2)C(=O)C=C(NCCCN(C)CCCNC2=CC(=O)c4sc(C)nc4C2=O)C3=O)cc1` [Example 41, N-(4-methoxyphenyl)-5-{[3-(methyl{3-[(2-methyl-4,7-dioxo-4,7-dihydro-1,3-benzothiazol-5-yl)amino]propyl}amino)propyl]amino}-4,7-dioxo-4,7-dihydro-1,3-benzothiazole-2-carboxamide], for which the melting point was in the range of 141 to 142 °C. Moreover, the IC50 in data set [1] is at most 1 µM. The IC50 in data set [2] was at most 10 µM. In data set [3], the IC50 is at most 10 µM.

Molecule `Cc1nc2c(s1)C(=O)C(NCCCN(C)CCCNC1=CC(=O)c3sc(C(=O)N4CCN(C(=O)C5CCCO5)CC4)nc3C1=O)=CC2=O` (centres unmarked) [Example 42, 5-{[3-(methyl{3-[(2-methyl-4,7-dioxo-4,7-dihydro-1,3-benzothiazol-6-yl)amino]propyl}amino)propyl]amino}-2-{[4-(tetrahydrofuran-2-ylcarbonyl)piperazin-1-yl]carbonyl}-1,3-benzothiazole-4,7-dione] gave a melting point of 121 to 122 °C. Further, in data set [1], the IC50 was at most 1 µM. The IC50 in data set [2] is at most 10 µM. The IC50 in data set [3] is at most 10 µM.

Turning to `CCNC(=O)c1nc2c(s1)C(=O)C=C(NCCCN(C)CCCNC1=CC(=O)c3sc(C)nc3C1=O)C2=O` [Example 43, N-ethyl-5-{[3-(methyl{3-[(2-methyl-4,7-dioxo-4,7-dihydro-1,3-benzothiazol-5-yl)amino]propyl}amino)propyl]amino}-4,7-dioxo-4,7-dihydro-1,3-benzothiazole-2-carboxamide], the melting point lay within 107 to 108 °C. For the same molecule, the IC50 in data set [1] is at most 1 µM. In data set [2], the IC50 is at most 10 µM. For the same molecule, the IC50 in data set [3] was at most 10 µM.
